For 53 molecules, inhibition results are on record in US7737143B2, “Substituted pyrazines as kinase inhibitors” (YM Biosciences Australia Pty Ltd, priority 2003, dated 2010).

One test has as its target T1, human JAK2 (Homo sapiens, UniProt O60674).
T1 construct: The kinase domain of human JAK2 was amplified from U937mRNA; His tag (pFastBac HTc vector; nickel chelate purification) (N); made in house; host or cells: baculovirus; Sf9 for virus, High Five insect cells for production
The test can be described thus: JAK kinase assay (ELISA or Alphascreen), Jak2. The test is classed as biochemical. The following applies: standard conditions, read-out: Jak2 inhibition of enzyme activity. An excerpt: The kinase domain of human JAK2 was amplified from U937mRNA using the polymerase chain reaction with the following primers: […]
JAK2 PCR products were cloned into the pFastBac HTc expression vector (Gibco) via the Sal I and Not I sites. The JAK2 plasmid was then transformed into competent DHL10Bac cells (Gibco), and the recombinant baculovirus produced prepared for transfection into Sf9 insect cells.
(§1) Baculovirus preparations from each of the JAK family members were infected into five litres of High Five cells (Invitrogen) grown in High Five serum free medium (Invitrogen) to a cell density of approximately 1-2×10^6 cells/ml. Cells are infected with virus at a MOI of 0.8-3.0. Cells were harvested and lysed. JAK kinase domains were purified by affinity chromatography on a Probond (Invitrogen) nickel chelate affinity column.
(§2) Kinase assays were performed either in a 96 well capture-based ELISA assay or in 384 well Optiplates (Packard) using an Alphascreen Protein Tyrosine Kinase kit. In either case using approximately 15 μg of affinity purified PTK domain in the presence of 50 mM HEPES, pH 7.5, 10 mM MgCl2 150 mM NaCl and 10 μM-1 mM ATP. The biotinylated substrate biotin-EGPWLEEEEEAYGWMDF-NH2 (final concentration 5 μM) was used as substrate. In the ELISA assay tyrosine phosphorylation was quantitated following transfer to an avidin coated ELISA plate using peroxidase-linked anti-phospho-tyrosine antibody PY20. In the Alphascreen assay, Alphascreen phosphotyrosine acceptor beads followed by streptavidin donor beads were added under subdued light. The ELISA plates were read on a BMG Fluorostar, the Alphascreen plates were read on a Packard Fusion Alpha. Inhibitors were added to the assays fifteen minutes prior to the addition of ATP. Inhibitors were added in aqueous DMSO, with DMSO concentrations never exceeding 1%.

The target of the next test is T2, human JAK3 (Homo sapiens, UniProt P52333).
T2 construct: The kinase domain of human JAK3 was amplified from U937mRNA; His tag (pFastBac HTb vector; nickel chelate purification) (N); made in house; host or cells: baculovirus; Sf9 for virus, High Five insect cells for production
T2 sequence (P52333 822-1111 limits assumed): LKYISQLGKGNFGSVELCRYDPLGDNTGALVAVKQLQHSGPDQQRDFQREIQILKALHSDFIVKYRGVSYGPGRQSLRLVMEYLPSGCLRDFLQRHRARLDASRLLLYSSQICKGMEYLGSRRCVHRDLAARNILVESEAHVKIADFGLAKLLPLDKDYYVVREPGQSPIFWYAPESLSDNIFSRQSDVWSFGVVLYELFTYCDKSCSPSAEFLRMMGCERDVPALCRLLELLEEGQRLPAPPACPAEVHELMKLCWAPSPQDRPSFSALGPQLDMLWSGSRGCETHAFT
The experiment in a line: JAK kinase assay (ELISA or Alphascreen), Jak3. The following applies: standard conditions, read-out: Jak3 inhibition of enzyme activity. The test is classed as biochemical.
Excerpt: The kinase domain of human JAK3 was amplified from U937mRNA using the polymerase chain reaction with the following primers: […]
JAK3 PCR products were cloned into the pFastBac HTb expression vector (Gibco) via the Xho I and Kpn I sites. The JAK3 plasmid was then transformed into competent DH10Bac cells (Gibco), and the recombinant baculovirus produced prepared for transfection into Sf9 insect cells.
as §1, §2

T1 sequence (O60674 849-1124 limits assumed): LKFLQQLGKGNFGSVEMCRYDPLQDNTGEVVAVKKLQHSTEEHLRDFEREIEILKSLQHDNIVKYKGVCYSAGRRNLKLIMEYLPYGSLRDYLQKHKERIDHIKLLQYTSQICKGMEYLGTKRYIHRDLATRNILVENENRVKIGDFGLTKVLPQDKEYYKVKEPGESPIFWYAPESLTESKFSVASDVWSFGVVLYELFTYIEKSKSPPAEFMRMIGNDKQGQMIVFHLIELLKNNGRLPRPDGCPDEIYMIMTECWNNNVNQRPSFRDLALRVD

Regarding `C[C@H](Nc1cncc(-n2cnc3cc(NS(=O)(=O)c4ccccc4)ccc32)n1)c1ccccc1`, the inhibition at 20 µM on human JAK2 and at human JAK3 was at least 50% in each case.
On to `CC(Nc1cncc(-n2cnc3ccccc32)n1)c1cccc(Cl)c1` (stereo not shown), for which the inhibition at 20 µM on human JAK2 and on human JAK3 was below 50% each time.
As to `CC(Nc1cncc(-n2cnc3ccccc32)n1)c1ccc(-n2ccnc2)cc1` (stereo not shown), the inhibition at 20 µM on human JAK2 and at human JAK3 was below 50% each time.
`c1ccc2c(c1)ncn2-c1cncc(-c2ccncc2)n1`: the inhibition at 20 µM on human JAK2 is at least 50%; at human JAK3 it was below 50%.
On the same counts, the results for `c1cncc(-c2cncc(-n3cnc4ccccc43)n2)c1` are at least 50% and below 50%.
The corresponding values for `O=S(=O)(Nc1ccc(-c2cncc(-n3cnc4ccccc43)n2)cc1)c1ccccc1` are at least 50% and at least 50%.
The corresponding values for `CCCC(Nc1cncc(-n2cnc3ccccc32)n1)c1ccccc1` (stereo not shown) are at least 50% and below 50%.
`CC(Nc1cncc(-n2cnc3ccc(CN4CCN(C)CC4)cc32)n1)c1ccc(F)cc1` (stereo not shown): the inhibition at 20 µM on human JAK2 and at human JAK3 was below 50% each time.
As for `CCN(CC)Cc1ccc2ncn(-c3cncc(NC(C)c4ccc(F)cc4)n3)c2c1` (stereo not shown), the inhibition at 20 µM at human JAK2 and on human JAK3 was below 50% in each case.
With `CC(Nc1cncc(-n2cnc3cc(CNCCN(C)C)ccc32)n1)c1ccc(F)cc1` (stereo not shown), the inhibition at 20 µM on human JAK2 and on human JAK3 was below 50% throughout.
As to `CC(Nc1cncc(-n2cnc3ccncc32)n1)c1ccc(F)cc1` (stereo not shown), the inhibition at 20 µM at human JAK2 and at human JAK3 was below 50% throughout.
As for `C[C@H](Nc1cncc(-n2cnc3cc(CO)ccc32)n1)c1ccc(F)cc1`, the inhibition at 20 µM at human JAK2 and at human JAK3 was below 50% throughout.
Regarding `C[C@H](Nc1cncc(-n2cnc3ccc(CN4CCC(O)CC4)cc32)n1)c1ccc(F)cc1`, the inhibition at 20 µM at human JAK2 is at least 50%; at human JAK3 it was below 50%.
The corresponding values for `C[C@H](Nc1cncc(-n2cnc3ccc(CN4CCN(CCN)CC4)cc32)n1)c1ccc(F)cc1` are below 50% and below 50%.
On the same counts, the results for `CC(Nc1cncc(-n2cnc3ccc(C#N)cc32)n1)c1cccc2ccccc12` (stereo not shown) are below 50% and below 50%.
On the same counts, the results for `C[C@H](Nc1cncc(-n2cnc3ccc(-c4nn[nH]n4)cc32)n1)c1ccc(F)cc1` are at least 50% and below 50%.
`C[C@H](Nc1cncc(-n2cnc3cc(C#N)ccc32)n1)c1ccccc1`: the inhibition at 20 µM on human JAK2 and on human JAK3 was at least 50% in each case.
Turning to `C[C@H](Nc1cncc(-n2cnc3ccc(C#N)cc32)n1)c1ccccc1`, the inhibition at 20 µM at human JAK2 and at human JAK3 was at least 50% each time.
Consider `C[C@H](Nc1cncc(-n2ncc3ccccc32)n1)c1ccc(F)cc1`, for which the inhibition at 20 µM on human JAK2 and on human JAK3 was below 50% in each case.
`C[C@H](Nc1cncc(-n2cc3ccccc3n2)n1)c1ccc(F)cc1`: the inhibition at 20 µM at human JAK2 and at human JAK3 was below 50% each time.
Take `CC(Nc1cncc(-n2cnc3ccc(C#N)cc32)n1)c1ccc(F)c(F)c1` (stereo not shown): the inhibition at 20 µM at human JAK2 and at human JAK3 was at least 50% throughout.
With `CC(Nc1cncc(-n2cnc3cc(C#N)ccc32)n1)c1ccc(F)c(F)c1` (stereo not shown), the inhibition at 20 µM on human JAK2 and on human JAK3 was at least 50% in each case.
For `CC(Nc1cncc(-n2cnc3cc(C#N)ccc32)n1)c1cccc(F)c1` (stereo not shown), the inhibition at 20 µM at human JAK2 and on human JAK3 was at least 50% in each case.
In the case of `N#Cc1ccc2ncn(-c3cncc(N[C@H]4CCCc5ccccc54)n3)c2c1`, the inhibition at 20 µM at human JAK2 and at human JAK3 was below 50% in each case.
As for `CC(Nc1cncc(-n2cnc3cc(C#N)ccc32)n1)c1cc(F)cc(F)c1` (stereo not shown), the values for the inhibition at 20 µM at human JAK2 and on human JAK3 were at least 50% and below 50%, respectively.
For `CC(Nc1cncc(-n2cnc3ccc(C#N)cc32)n1)c1cccc(C(F)(F)F)c1` (stereo not shown), the values for the inhibition at 20 µM at human JAK2 and at human JAK3 were at least 50% and below 50%, respectively.
The corresponding values for `CC(Nc1cncc(-n2cnc3cc(C#N)ccc32)n1)c1cccc(C(F)(F)F)c1` (stereo not shown) are below 50% and below 50%.
The corresponding values for `CC(Nc1cncc(-n2cnc3ccc(C#N)cc32)n1)c1ccc(F)c(Cl)c1` (stereo not shown) are at least 50% and at least 50%.
In the case of `CC(Nc1cncc(-n2cnc3ccc(C#N)cc32)n1)c1cccc(OC(F)(F)F)c1` (stereo not shown), the inhibition at 20 µM at human JAK2 and on human JAK3 was below 50% throughout.
In the case of `CC(Nc1cncc(-n2cnc3cc(C#N)ccc32)n1)c1cccc(OC(F)(F)F)c1` (stereo not shown), the inhibition at 20 µM on human JAK2 and at human JAK3 was below 50% throughout.
As for `N#Cc1ccc2ncn(-c3cncc(NC4Cc5ccccc5C4)n3)c2c1`, the inhibition at 20 µM at human JAK2 and on human JAK3 was below 50% in each case.
Turning to `N#Cc1ccc2c(c1)ncn2-c1cncc(NC2Cc3ccccc3C2)n1`, the inhibition at 20 µM at human JAK2 and at human JAK3 was below 50% in each case.
Consider `N#Cc1ccc2ncn(-c3cncc(N4CCc5ccccc5C4)n3)c2c1`, for which the inhibition at 20 µM on human JAK2 and at human JAK3 was below 50% each time.
Consider `N#Cc1ccc2c(c1)ncn2-c1cncc(N2CCc3ccccc3C2)n1`, for which the inhibition at 20 µM on human JAK2 and on human JAK3 was below 50% each time.
As for `CC[C@H](Nc1cncc(-n2cnc3ccc(C#N)cc32)n1)c1ccccc1`, the inhibition at 20 µM on human JAK2 and on human JAK3 was at least 50% in each case.
For `C[C@H](Nc1cncc(-n2cnc3cccnc32)n1)c1ccccc1`, the inhibition at 20 µM on human JAK2 and on human JAK3 was below 50% each time.
As for `C[C@H](Nc1cncc(-n2cnc3ncccc32)n1)c1ccccc1`, the inhibition at 20 µM on human JAK2 and on human JAK3 was below 50% throughout.
`C[C@H](Nc1cncc(-n2cnc3cccnc32)n1)c1ccc(F)cc1`: the inhibition at 20 µM on human JAK2 and at human JAK3 was below 50% in each case.
Consider `C[C@H](Nc1cncc(-n2cnc3ncccc32)n1)c1ccc(F)cc1`, for which the inhibition at 20 µM at human JAK2 and on human JAK3 was below 50% each time.
On to `Cc1ccc([C@H](C)Nc2cncc(-n3cnc4cc(C#N)ccc43)n2)cc1`, for which the figures for the inhibition at 20 µM on human JAK2 and on human JAK3 were at least 50% and below 50%, respectively.
On the same counts, the results for `C[C@@H](c1ccccc1)N(C)c1cncc(-n2cnc3cc(C#N)ccc32)n1` are below 50% and below 50%.
In the case of `Cc1ncc(-n2cnc3ccc(C#N)cc32)nc1N[C@@H](C)c1ccccc1`, the inhibition at 20 µM on human JAK2 and at human JAK3 was at least 50% throughout.
For the molecule `N#Cc1ccc2ncn(-c3cncc(Cl)n3)c2c1`, the inhibition at 20 µM on human JAK2 and at human JAK3 was below 50% each time.
As to `CC1CC(Nc2cncc(-n3cnc4ccc(C#N)cc43)n2)c2ccccc21` (stereo not shown), the inhibition at 20 µM on human JAK2 and at human JAK3 was below 50% each time.
As for `COc1cccc2c1CCC2Nc1cncc(-n2cnc3ccc(C#N)cc32)n1` (stereo not shown), the inhibition at 20 µM on human JAK2 is below 50%; at human JAK3, at least 50%.
The corresponding values for `COc1cccc2c1CCC2Nc1cncc(-n2cnc3cc(C#N)ccc32)n1` (stereo not shown) are below 50% and below 50%.
The corresponding values for `COc1ccc2c(c1)CCC2Nc1cncc(-n2cnc3cc(C#N)ccc32)n1` (stereo not shown) are below 50% and below 50%.
Consider `N#Cc1ccc2c(c1)ncn2-c1cncc(NC2CCc3ccc(O)cc32)n1` (stereo not shown), for which the inhibition at 20 µM on human JAK2 and on human JAK3 was below 50% each time.
For the molecule `N#Cc1ccc2ncn(-c3cncc(NC4CCc5cc(F)ccc54)n3)c2c1` (stereo not shown), the inhibition at 20 µM on human JAK2 and at human JAK3 was below 50% in each case.
Take `N#Cc1ccc2ncn(-c3cncc(NC4CCc5cc(Br)ccc54)n3)c2c1` (stereo not shown): the inhibition at 20 µM on human JAK2 was below 50%; on human JAK3 it was at least 50%.
In the case of `N#Cc1ccc2c(c1)ncn2-c1cncc(NC2CCc3cc(Br)ccc32)n1` (stereo not shown), the inhibition at 20 µM at human JAK2 and at human JAK3 was below 50% in each case.
As to `CC(Nc1cncc(-n2cnc3ccc(C#N)cc32)n1)c1ccccn1` (stereo not shown), the inhibition at 20 µM at human JAK2 and on human JAK3 was at least 50% in each case.
In the case of `CC(Nc1cncc(-n2cnc3cc(C#N)ccc32)n1)c1ccccn1` (stereo not shown), the inhibition at 20 µM on human JAK2 is at least 50%; at human JAK3, below 50%.
